Measured values reported in patent US10770169B2, “Method of providing a treatment to a subject based on a dynamic pathway map” (THE REGENTS OF THE UNIVERSITY OF CALIFORNIA, priority 2010, dated 2020).

Test system: panel of 55 breast cancer cell lines
Assay: Cell growth inhibition assay (Cell Titer Glo, 72 h, 9 doses; GI50, TGI, LC50)
Assay type: cell-based, human
Settings: value is the negative log10 of mol/L
[1] = BT20 cell line, censored GI50 values
[2] = BT474 cell line, censored GI50 values
[3] = BT483 cell line, censored GI50 values
[4] = CAMA1 cell line, censored GI50 values
[5] = HCC38 cell line, censored GI50 values
[6] = HCC70 cell line, censored GI50 values
[7] = HCC1187 cell line, censored GI50 values
[8] = HCC1428 cell line, censored GI50 values
[9] = HCC1500 cell line, censored GI50 values
[10] = HCC1954 cell line, censored GI50 values
[11] = HCC2185 cell line, censored GI50 values
[12] = HCC3153 cell line, censored GI50 values
[13] = MDAMB134VI cell line, censored GI50 values
[14] = MDAMB175VII cell line, censored GI50 values
[15] = MDAMB453 cell line, censored GI50 values
[16] = MDAMB468 cell line, censored GI50 values
[17] = SKBR3 cell line, censored GI50 values
[18] = SUM52PE cell line, censored GI50 values
[19] = SUM149PT cell line, censored GI50 values
[20] = SUM1315MO2 cell line, censored GI50 values
[21] = UACC812 cell line, censored GI50 values
[22] = ZR75B cell line, censored GI50 values

## N#Cc1c(NC(=O)c2cccc3ccccc23)sc2c1CCCC2 [TCS JNK 5a]
[1]
  GI50: 5.97
[2]
  GI50: 4.17
[3]
  GI50: 5.94
[4]
  GI50: 5.48
[5]
  GI50: 5.32
[6]
  GI50: 5.64
HCC1143 cell line, censored GI50 values
  GI50: 4.21
[7]
  GI50: 6.08
HCC1395 cell line, censored GI50 values
  GI50: 6.21
[8]
  GI50: 4.61
[9]
  GI50: 5.31
[10]
  GI50: 5.90
[11]
  GI50: 4.66
[12]
  GI50: 5.59
[13]
  GI50: 4.78
[14]
  GI50: 5.02
[15]
  GI50: 6.12
[16]
  GI50: 4.37
[17]
  GI50: 5.27
[18]
  GI50: 4.86
[19]
  GI50: 5.46
[20]
  GI50: 6.31
[21]
  GI50: 5.72
[22]
  GI50: 4.59
Cell line BT20
  GI50: 5.97
Cell line BT474
  GI50: 4.17
Cell line BT483
  GI50: 5.94
Cell line CAMA1
  GI50: 5.48
Cell line HCC38
  GI50: 5.32
Cell line HCC70
  GI50: 5.64
Cell line HCC1143
  GI50: 4.21
Cell line HCC1187
  GI50: 6.08
Cell line HCC1395
  GI50: 6.21
Cell line HCC1428
  GI50: 4.61
Cell line HCC1500
  GI50: 5.31
Cell line HCC1806
  GI50: 3.92
Cell line HCC1937
  GI50: 3.88
Cell line HCC1954
  GI50: 5.90
Cell line HCC2185
  GI50: 4.66
Cell line HCC3153
  GI50: 5.59

## Cc1cc(C(=O)N2CCN(c3cccc(Cl)c3)CC2)n(-c2ccccc2)n1 [XRP44X]
AU565 cell line, censored GI50 values
  GI50: 6.35
[1]
  GI50: 5.29
[2]
  GI50: 5.34
[3]
  GI50: 4.18
[4]
  GI50: 6.27
[5]
  GI50: 5.85
[6]
  GI50: 5.98
[7]
  GI50: 6.23
[8]
  GI50: 5.85
[9]
  GI50: 5.74
HCC1806 cell line, censored GI50 values
  GI50: 5.92
[10]
  GI50: 6.30
[11]
  GI50: 6.63
[12]
  GI50: 5.95
LY2 cell line, censored GI50 values
  GI50: 6.08
MCF7 cell line, censored GI50 values
  GI50: 6.40
[13]
  GI50: 6.21
[14]
  GI50: 5.44
MDAMB361 cell line, censored GI50 values
  GI50: 6.06
MDAMB415 cell line, censored GI50 values
  GI50: 6.30
MDAMB436 cell line, censored GI50 values
  GI50: 5.47
[15]
  GI50: 6.20
[16]
  GI50: 5.93
[17]
  GI50: 5.58
[18]
  GI50: 6.06
[19]
  GI50: 5.63
SUM159PT cell line, censored GI50 values
  GI50: 6.16
[20]
  GI50: 6.11
T47D cell line, censored GI50 values
  GI50: 5.29
[21]
  GI50: 6.30
[22]
  GI50: 5.90
ZR751 cell line, censored GI50 values
  GI50: 5.90
Cell line AU565
  GI50: 6.35
Cell line BT20
  GI50: 5.29
Cell line BT474
  GI50: 5.34
Cell line BT483
  GI50: 4.18
Cell line CAMA1
  GI50: 6.27
Cell line HCC38
  GI50: 5.85
Cell line HCC70
  GI50: 5.98
Cell line HCC1187
  GI50: 6.23
Cell line HCC1419
  GI50: 3.88
Cell line HCC1428
  GI50: 5.85
Cell line HCC1500
  GI50: 5.74
Cell line HCC1806
  GI50: 5.92
Cell line HCC1937
  GI50: 3.88
Cell line HCC1954
  GI50: 6.30
Cell line HCC2185
  GI50: 6.63
Cell line HCC3153
  GI50: 5.95
Cell line LY2
  GI50: 6.08
Cell line MCF7
  GI50: 6.40
Cell line MDAMB134V
  GI50: 6.21
Cell line MDAMB175V
  GI50: 5.44
Cell line MDAMB361
  GI50: 6.06
Cell line MDAMB415
  GI50: 6.30
Cell line MDAMB436
  GI50: 5.47
Cell line MDAMB453
  GI50: 6.20
Cell line MDAMB468
  GI50: 5.93
Cell line SKBR3
  GI50: 5.58
Cell line SUM52PE
  GI50: 6.06
Cell line SUM149PT
  GI50: 5.63
Cell line SUM159PT
  GI50: 6.16
Cell line SUM1315MO
  GI50: 6.11
Cell line T47D
  GI50: 5.29
Cell line UACC812
  GI50: 6.30
Cell line ZR75B
  GI50: 5.90
Cell line ZR751
  GI50: 5.90
